Measurements: paper PMC4526861, “Inhibition of protein kinase C by isojacareubin suppresses hepatocellular carcinoma metastasis and induces apoptosis in vitro and in vivo” (Scientific Reports, 2015)

Experiments:
[1] = system: QGY-7703 cells; test: Cell proliferation assay (CCK-8), QGY-7703; type: cell-based, human
Procedure: The human HCC cell lines QGY-7703, SMMC-7721 and HepG2 and the liver cell line QSG-7701 were supplied by the Cell Resource Center, Institute of Life Sciences, Chinese Academy of Medical Science. QGY-7703, SMMC-7721 and QSG-7701 cells were cultured in 1640 medium (Gibco), and HepG2 cells were cultured in DMEM medium (Gibco) at 37 °C in moist air supplemented with 5% CO2. All media were supplemented with 10% fetal bovine serum (FBS) and 100 Units/mL of penicillin/streptomycin.
The cell viability assay was performed as previously reported using a Cell Counting Kit-8 (CCK-8; Dojindo, Kumamoto, Japan)[33][34]. The relative cell viability was presented as % inhibition and calculated using the following formula: […]

[2] = system: PKCζ; test: Western blot of PKC isoform expression in cytosol and membrane; type: cell-based, human; details: HepG2, 24 h incubation
Procedure: To further determine whether compound 7 and ISJ represent potential candidates for selective PKC expression inhibitors against hepatoma, the expression of PKC isoforms in HepG2 cells was characterized by western blotting. After 24 h of incubation with GFX, GO, ISJ and compound 7 at the indicated concentrations, PKC proteins from the cytosol and membrane of HepG2 cells were evaluated. ISJ and compound 7 treatments reduced both the cytosol and cell membrane expression of PKCζ.
(§1) The total membrane and cytosolic proteins were extracted using a Membrane and Cytosol Protein Extraction Kit (Beyotime). Extracted proteins from cells or animal tissues were separated by SDS-PAGE and transferred to polyvinylidene difluoride (PVDF) membranes (Bio-Rad). The PVDF membranes were blocked with 5% nonfat milk and incubated with primary antibodies overnight, followed by incubation with a donkey anti-rabbit or anti-mouse secondary antibody (IRDye 800, LI-COR, Biosciences). The images were captured using the Odyssey Infrared Imaging System (LI-COR, Biosciences), according to the manufacturer's instructions. The intensity was quantitative with Quantity One software (Bio-Rad). To ensure equal protein loading, each membrane was stripped and reprobed with an anti-β-actin antibody. All experiments were repeated independently no less than three times.

[3] = target: T1, PKCα (Homo sapiens, UniProt P17252); test: Cell-based pull-down assay, PKCα; type: binding; details: HepG2 lysates
T1 construct: Endogenous cPKC (PKCα) and nPKC (PKCδ, PKCε and PKCμ) in HepG2 lysates were pulled down; endogenous in cells; host or cells: HepG2
Procedure: (§2) To identify whether ISJ and compound 7 target PKC in cells, we performed pull-down experiments using ISJ- and compound 7-coupled Sepharose beads with HepG2 cell lysates. Endogenous cPKC (PKCα) and nPKC (PKCδ, PKCε and PKCμ) in HepG2 lysates were pulled down by ISJ-coupled CNBr-activated Sepharose 4B beads (Fig. 5a).
(§3) The control beads were prepared by incubating the beads with DMSO. Proteins (500 μg) from lysed HepG2 cells were mixed with either the control beads, compound 7-coupled beads, or ISJ-coupled beads (100 μL) in reaction buffer [50 mM Tris (pH 7.5), 5 mM EDTA, 150 mM NaCl, 1 mM DTT, 0.01% NP-40, 2 μg/mL BSA, 1 mM PMSF, 1% protease inhibitor mixture]. After incubation with gentle rocking overnight at 4 °C, the beads were washed 5 times with washing buffer [50 mM Tris (pH 7.5), 5 mM EDTA, 150 mM NaCl, 1 mM DTT, 0.01% NP-40, 1 mM PMSF], and binding was visualized by western blotting.

[4] = target: T2, PKCε (Homo sapiens, UniProt Q02156); test: Cell-based pull-down assay, PKCε; type: binding; details: HepG2 lysates
T2 construct: Endogenous cPKC (PKCα) and nPKC (PKCδ, PKCε and PKCμ) in HepG2 lysates were pulled down; endogenous in cells; host or cells: HepG2
T2 sequence (Q02156 1-737): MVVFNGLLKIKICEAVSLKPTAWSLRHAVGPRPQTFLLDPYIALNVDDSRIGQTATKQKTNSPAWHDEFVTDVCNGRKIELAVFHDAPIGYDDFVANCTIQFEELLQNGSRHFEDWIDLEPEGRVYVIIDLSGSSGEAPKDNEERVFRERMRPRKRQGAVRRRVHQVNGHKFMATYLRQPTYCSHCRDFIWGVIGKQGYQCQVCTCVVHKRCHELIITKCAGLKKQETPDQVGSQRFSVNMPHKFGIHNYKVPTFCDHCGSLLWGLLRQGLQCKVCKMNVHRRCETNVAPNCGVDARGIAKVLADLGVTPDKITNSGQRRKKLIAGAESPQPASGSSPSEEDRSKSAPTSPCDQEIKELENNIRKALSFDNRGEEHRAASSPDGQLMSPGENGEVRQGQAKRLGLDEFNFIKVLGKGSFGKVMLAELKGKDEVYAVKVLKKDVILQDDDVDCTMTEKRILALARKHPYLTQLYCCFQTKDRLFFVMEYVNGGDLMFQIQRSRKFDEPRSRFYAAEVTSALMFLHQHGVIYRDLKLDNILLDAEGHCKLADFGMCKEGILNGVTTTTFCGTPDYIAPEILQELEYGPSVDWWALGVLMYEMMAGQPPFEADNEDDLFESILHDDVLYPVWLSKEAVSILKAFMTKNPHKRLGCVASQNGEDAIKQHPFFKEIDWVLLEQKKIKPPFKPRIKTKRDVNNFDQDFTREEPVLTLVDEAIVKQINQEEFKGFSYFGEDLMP
Procedure: as §2, §3

[5] = system: cPKC and nPKC; test: Pull-down competition with free ISJ; type: binding, human; details: free ISJ 20 μM, HepG2 lysates
Source text: as §2
Figure 5 Direct interactions between ISJ and PKC isotypes. (a) Immobilized on CNBr-activated Sepharose 4B beads, ISJ directly bound to cPKC (PKCα) and nPKC (PKCδ, PKCε and PKCμ). (b) HepG2 cell lysates were incubated with ISJ-conjugated Sepharose 4B beads or with DMSO-conjugated control beads in the absence or presence of free ISJ (20 μM), and the bead-captured proteins were subjected to analysis by immunoblotting.
as §3

[6] = system: c-PARP, c-Cas3 and c-Cas9 in xenograft tumors; test: Histology, IHC and immunoblot of xenograft tumors; type: in vivo, BALB/c-nu nude mice; details: 5 mg/kg
Procedure: as §1
To further confirm the antitumor activities of compound 7 and ISJ in vivo, histological analysis was performed on the hepatoma xenografts. Briefly, the samples were fixed in a 10% formalin solution, processed, embedded, sectioned and either H&E stained to reveal tumor tissue necrosis or IHC stained using antibodies against c-PARP, c-Cas3 or c-Cas9. The H&E and IHC images were obtained on a Leica DMI3000 B phase-contrast microscopy. The immunoreactive areas in the IHC images were quantified using ImagePro Plus 6.0 software (Media Cybernetics, Silver Spring, MD). The integrated optical density (IOD) values were represented as the mean ± SEM.

[7] = system: methicillin-resistant Staphylococcus aureus (MRSA); design: method as in PMID 22942699; details: cited from earlier work
[8] = system: HeLa-C3 cells; design: method as in PMID 18614188; details: cited from earlier work

For Isojacareubin [ISJ], the “Inhibitory Ratio (%) QGY-7703” value ([1]; 50 μM) was 83.69%, the IC50 ([1]; mean ± SD, at least three independent experiments) was 4.65 ± 0.32 µM and the “PKCζ expression in cytosol and cell membrane” value [2] was “significantly decreased”. For the same substance, the “pull-down of endogenous PKCα by compound-coupled Sepharose 4B beads” value [3] was “pulled down”, the “pull-down of endogenous PKCε by compound-coupled Sepharose 4B beads” value [4] was “pulled down” and the “amounts of cPKC and nPKC captured by ISJ-coupled 4B beads in presence of free compound” value [5] was “obvious decline”. For the same substance, the “H&E staining of xenograft tumors” value [6] was “significant tissue death”, the “IHC c-PARP, c-Cas3 and c-Cas9 levels in tumors” value [6] was “upregulated expression” and the “immunoblot c-PARP, c-Cas3 and c-Cas9 levels in tumor tissue” value [6] was “increased”. The “antibacterial activity against MRSA” value [7] was “potent antibacterial compound” and the “growth of HeLa-C3 cells” value [8] was “inhibited the growth”.
